# Laboratory results as given in US4443436A, “C-20-Modified macrolide derivatives of the macrolide antibiotics tylosin, desmycosin, macrocin, and lactenocin” (Eli Lilly and Company, priority 1982, dated 1984).
# Where two headings read alike, the source gives them in different places.
# Tests used:
# [1] = test system: Streptococcus pyogenes C203; test: MIC, standard agar-dilution assay, Streptococcus pyogenes C203; assay type: cell-based
# Streptococcus bovis 80 = test: MIC, broth-dilution microtiter test, Streptococcus bovis 80; assay type: cell-based; details: Streptococcus bovis 80, broth-dilution microtiter
# Source text: (§1) The MIC's in Table X were obtained using conventional broth-dilution microtiter tests.
# [2] = test system: Pasteurella multocida 60A; test: MIC, broth-dilution microtiter test, Pasteurella multocida 60A; assay type: cell-based; details: Pasteurella multocida 60A, avian isolate, broth-dilution microtiter
# Source text: as §1
# [3] = test system: Streptococcus pyogenes C203; test: In vivo protection of mice experimentally infected with S. pyogenes C203; details: Streptococcus pyogenes, mice, doses given 1 and 4 hours post-infection
# Experimental: The C-20 modified derivatives of this invention have shown in vivo antimicrobial activity against experimentally-induced infections in laboratory animals. When two doses of test compound were administered to mice experimentally infected with S. pyogenes C203, the activity observed was measured as an ED50 value [effective dose in mg/kg to protect 50% of the test animals: see Warren Wick, et al., J. Bacteriol. 81, 233-235 (1961)].
# [4] = test system: Haemophilus influenzae R252; test: MIC, standard agar-dilution assay, Haemophilus influenzae R252; assay type: cell-based; details: Haemophilus influenzae R252, ampicillin-resistant strain
# Mycoplasma hyorhinis = test: MIC, broth-dilution microtiter test, Mycoplasma hyorhinis; assay type: cell-based
# Source text: as §1
# Staphylococcus aureus = test: MIC, broth-dilution microtiter test, Staphylococcus aureus; assay type: cell-based
# Source text: as §1
# [5] = test system: Staphylococcus aureus S13E; test: MIC, standard agar-dilution assay, Staphylococcus aureus S13E; assay type: cell-based
# Streptococcus Group 9960 = test: MIC, standard agar-dilution assay, Streptococcus Group 9960; assay type: cell-based; details: Streptococcus Group 9960, agar dilution
# [6] = test system: Staphylococcus epidermidis EPI1; test: MIC, standard agar-dilution assay, Staphylococcus epidermidis EPI1; assay type: cell-based
# [7] = test system: Streptococcus Group D X66; test: MIC, standard agar-dilution assay, Streptococcus Group D X66; assay type: cell-based
# Mycoplasma gallisepticum = test: MIC, broth-dilution microtiter test, Mycoplasma gallisepticum; assay type: cell-based
# Source text: as §1
# [8] = test system: Staphylococcus aureus V41; test: MIC, standard agar-dilution assay, Staphylococcus aureus V41; assay type: cell-based
# [9] = test system: Staphylococcus aureus X400; test: MIC, standard agar-dilution assay, Staphylococcus aureus X400; assay type: cell-based
# [10] = test system: Pasteurella multocida 17E; test: MIC, broth-dilution microtiter test, Pasteurella multocida 17E; assay type: cell-based; details: Pasteurella multocida 17E, bovine isolate, broth-dilution microtiter
# Source text: as §1
# [11] = test system: Haemophilus influenzae Holt; test: MIC, standard agar-dilution assay, Haemophilus influenzae Holt; assay type: cell-based; details: Haemophilus influenzae Holt, ampicillin-sensitive strain
# [12] = test system: Pasteurella hemolytica 22C; test: MIC, broth-dilution microtiter test, Pasteurella hemolytica 22C; assay type: cell-based; details: Pasteurella hemolytica 22C, broth-dilution microtiter
# Source text: as §1
# [13] = test system: Streptococcus pneumoniae Park I; test: microbe, parasite or virus in culture; assay type: cell-based
# [14] = test system: Staphylococcus aureus X1.1; test: MIC, standard agar-dilution assay, Staphylococcus aureus X1.1; assay type: cell-based
# [15] = test system: Staphylococcus epidermidis EPI2; test: MIC, standard agar-dilution assay, Staphylococcus epidermidis EPI2; assay type: cell-based; details: Staphylococcus epidermidis EPI2, agar dilution
# [16] = Streptococcus pyogenes C203, agar dilution, read-out: MIC
# [17] = Streptococcus equinus, read-out: MIC
# [18] = C203, sc, subcutaneous, read-out: ED50, Subcutaneous
# [19] = C203, oral, read-out: ED50, Oral
# [20] = Staphylococcus epidermidis, EPI1
# [21] = Streptococcus pyogenes C203, agar dilution
# [22] = Staphylococcus aureus S13E, agar dilution
# [23] = Staphylococcus epidermidis EPI1, agar dilution
# [24] = Streptococcus Group D X66, agar dilution
# [25] = Staphylococcus aureus V41, penicillin-resistant strain, agar dilution
# [26] = Staphylococcus aureus X400, methicillin-resistant strain, agar dilution
# [27] = Streptococcus pneumoniae Park I, agar dilution
# [28] = Staphylococcus aureus X1.1, agar dilution
# [29] = Streptococcus Group D X66, agar dilution, read-out: MIC
Structure (SMILES),"MIC ([5]; Staphylococcus aureus, S13E)","MIC (Streptococcus Group 9960; GROUP9960, read-out: MIC)","MIC [6, 20]","MIC ([8]; Staphylococcus aureus, V41)","MIC ([14]; Staphylococcus aureus, X1.1)","MIC [1, 21]",MIC ([4]; agar dilution),MIC [15],"MIC [5, 22]",MIC (Streptococcus Group 9960),"MIC [6, 23]","MIC [7, 24]","MIC [8, 25]","MIC [9, 26]",MIC ([11]; agar dilution),"MIC [13, 27]","MIC [14, 28]",further results
"CCC1OC(=O)CC(O)C(C)C(OC2OC(C)C(OC3CC(C)(O)C(O)C(C)O3)C(N(C)C)C2O)C(CCCl)CC(C)C(=O)C=CC(C)=CC1COC1OC(C)C(O)C(OC)C1OC (centres unmarked) [Compound 7, 20-DH-DO-20-Chlorotylosin]",1 mg/L,> 128 mg/L,1 mg/L,1 mg/L,1 mg/L,,,,,,,,,,,,,"MIC [1, 16]: 2 mg/L; MIC (Streptococcus bovis 80; [17]): 12.5 mg/L; MIC ([2]; read-out: MIC): > 50 mg/L; ED50 [3, 18]: > 6.3 mg/kg; ED50 [3, 19]: 11 mg/kg; MIC ([4]; read-out: MIC): > 128 mg/L; MIC (Mycoplasma hyorhinis; Mycoplasma): 50 mg/L; MIC (Staphylococcus aureus): 3.12 mg/L; MIC [7]: > 128 mg/L; MIC (Mycoplasma gallisepticum; Mycoplasmoides gallisepticum): 0.78 mg/L; MIC ([9]; Staphylococcus aureus, X400): 2 mg/L; MIC ([10]; read-out: MIC): > 50 mg/L; MIC ([11]; read-out: MIC): > 128 mg/L; MIC ([12]; read-out: MIC): > 50 mg/L; MIC ([13]; Streptococcus pneumoniae Park I, agar dilution, read-out: MIC): 32 mg/L"
"CCC1OC(=O)CC(O)C(C)C(OC2OC(C)C(O)C(N(C)C)C2O)C(CCNC(=O)COc2ccccc2)CC(C)C(=O)C=CC(C)=CC1COC1OC(C)C(O)C(OC)C1OC (centres unmarked) [Compound 51c, 20-DH-DO-20-(N-phenoxyacetyl)aminodesmycosin]",,,,,,0.25 mg/L,8 mg/L,0.12 mg/L,0.25 mg/L,1 mg/L,0.25 mg/L,1 mg/L,0.25 mg/L,0.5 mg/L,8 mg/L,0.25 mg/L,0.25 mg/L,
CCC1OC(=O)CC(O)C(C)C(OC2OC(C)C(OC3CC(C)(O)C(O)C(C)O3)C(N(C)C)C2O)C(CCOc2ncnc3ccccc23)CC(C)C(=O)C=CC(C)=CC1COC1OC(C)C(O)C(OC)C1OC (centres unmarked) [Compound 19a],,,,,,4 mg/L,"-- (Not active at 128 mcg/ml, the highest level tested)",0.5 mg/L,0.5 mg/L,64 mg/L,1 mg/L,32 mg/L,0.5 mg/L,1 mg/L,128 mg/L,4 mg/L,0.5 mg/L,
CCC1OC(=O)CC(O)C(C)C(OC2OC(C)C(O)C(N(C)C)C2O)C(CCOc2ccc(CO)cc2)CC(C)C(=O)C=CC(C)=CC1COC1OC(C)C(O)C(OC)C1OC (centres unmarked) [Compound 51a],,,,,,0.5 mg/L,32 mg/L,0.25 mg/L,0.5 mg/L,16 mg/L,0.5 mg/L,16 mg/L,0.5 mg/L,1 mg/L,64 mg/L,,0.5 mg/L,
"CCC1OC(=O)CC(O)C(C)C(OC2OC(C)C(OC3CC(C)(O)C(O)C(C)O3)C(N(C)C)C2O)C(CCOc2ccccc2)CC(C)C(=O)C=CC(C)=CC1COC1OC(C)C(O)C(OC)C1OC (centres unmarked) [Compound 4, 20-DH-20-O-Phenyltylosin]",1 mg/L,128 mg/L,1 mg/L,1 mg/L,1 mg/L,,,,,,,,,,,,,"MIC [1, 16]: 2 mg/L; MIC (Streptococcus bovis 80; [17]): 12.5 mg/L; MIC ([2]; read-out: MIC): > 50 mg/L; ED50 [3, 18]: > 6.3 mg/kg; ED50 [3, 19]: 35 mg/kg; MIC ([4]; read-out: MIC): > 128 mg/L; MIC (Mycoplasma hyorhinis; Mycoplasma): 50 mg/L; MIC (Staphylococcus aureus; broth-dilution microtiter, read-out: MIC): 3.12 mg/L; MIC [7, 29]: 128 mg/L; MIC (Mycoplasma gallisepticum; Mycoplasmoides gallisepticum): 1.56 mg/L; MIC ([9]; Staphylococcus aureus X400, methicillin-resistant strain, agar dilution, read-out: MIC): 2 mg/L; MIC ([10]; read-out: MIC): > 50 mg/L; MIC ([11]; read-out: MIC): > 128 mg/L; MIC ([12]; read-out: MIC): > 50 mg/L"
"CCC1OC(=O)CC(O)C(C)C(OC2OC(C)C(O)C(N(C)C)C2O)C(CCOCCc2ccccc2)CC(C)C(=O)C=CC(C)=CC1COC1OC(C)C(O)C(OC)C1OC (centres unmarked) [Compound 31, 20-DH-20-O-(Phenethyl)desmycosin]",0.25 mg/L,16 mg/L,0.25 mg/L,0.25 mg/L,0.25 mg/L,,,,,,,,,,,,,"MIC ([1]; Streptococcus pyogenes, C203): 1 mg/L; MIC ([15]; read-out: MIC): 0.12 mg/L; MIC [7, 29]: 8 mg/L; MIC ([9]; Staphylococcus aureus, X400): 0.5 mg/L; MIC ([13]; Streptococcus pneumoniae): 0.25 mg/L"
"CC(=O)O.CC(=O)O.CCC1OC(=O)CC(O)C(C)C(OC2OC(C)C(O)C(N(C)C)C2O)C(CCN)CC(C)C(=O)C=CC(C)=CC1COC1OC(C)C(O)C(OC)C1OC (centres unmarked) [Compound 51b, 20-DH-DO-20-Aminodesmycosin diacetate]",,,,,,,"-- (Not active at 128 mcg/ml, the highest level tested)",2 mg/L,4 mg/L,128 mg/L,8 mg/L,128 mg/L,4 mg/L,8 mg/L,128 mg/L,16 mg/L,4 mg/L,
"CCC1OC(=O)CC(O)C(C)C(OC2OC(C)C(OC3CC(C)(O)C(O)C(C)O3)C(N(C)C)C2OC(C)=O)C(CCOc2ccccc2)CC(C)C(=O)C=CC(C)=CC1COC1OC(C)C(O)C(OC)C1OC (centres unmarked) [Compound 64, 20-DH-20-O-Phenyl-2'-O-acetyltylosin]",,,,,,2 mg/L,"-- (Not active at 128 mcg/ml, the highest level tested)",2 mg/L,2 mg/L,"-- (Not active at 128 mcg/ml, the highest level tested)",2 mg/L,"-- (Not active at 128 mcg/ml, the highest level tested)",2 mg/L,4 mg/L,"-- (Not active at 128 mcg/ml, the highest level tested)",,2 mg/L,"MIC (Streptococcus bovis 80): 12.5 mg/L; MIC [2]: -- (Not active at 50 mcg/ml, the highest level tested); MIC (Mycoplasma hyorhinis; Mycoplasma hyorhinis, broth-dilution microtiter): 50 mg/L; MIC (Staphylococcus aureus; broth-dilution microtiter): 3.12 mg/L; MIC (Mycoplasma gallisepticum; Mycoplasma gallisepticum, broth-dilution microtiter): 1.56 mg/L; MIC [10]: -- (Not active at 50 mcg/ml, the highest level tested); MIC [12]: -- (Not active at 50 mcg/ml, the highest level tested)"
